In ChEMBL document CHEMBL5241056, “Engagement of phytoestrogens in breast cancer suppression: Structural classification and mechanistic approach” (Eur J Med Chem, 2021):
Converted amounts (≈) assume the structure as drawn. Blank lines part the entries; values can stand above or below the compound they belong to.

What was measured:
[1] = test system: MCF7; assay: Antiproliferative activity against human MCF7 cells assessed as inhibition of cell growth incubated for 2 days by SRB assay; format: functional, cell-based; conditions: MCF7, 48 h
[2] = test system: MCF7; assay: Antiproliferative activity against human MCF7 cells assessed as inhibition of cell growth incubated for 4 days by SRB assay; format: functional, cell-based; conditions: MCF7, 96 h
[3] = test system: MCF7; assay: Antiproliferative activity against human MCF7 cells assessed as inhibition of cell growth incubated for 6 days by SRB assay; format: functional, cell-based; conditions: MCF7, 144 h
[4] = test system: MDA-MB-231; assay: Antiproliferative activity against human MDA-MB-231 cells assessed as inhibition of cell growth incubated for 24 to 96 hrs by MTT assay; format: functional, cell-based
[5] = Cytotoxicity against human MCF-10A cells assessed as inhibition of cell growth incubated for 24 to 96 hrs by MTT assay; format: toxicity, cell-based
[6] = test system: MDA-MB-468; assay: Antiproliferative activity against human MDA-MB-468 cells assessed as inhibition of cell growth by MTT assay; format: functional, cell-based
[7] = Cytotoxicity against human MCF-10A cells assessed as inhibition of cell growth by MTT assay; format: toxicity, cell-based
[8] = test system: MCF7; assay: Antiproliferative activity against human MCF7 cells assessed as inhibition of cell growth incubated for 2 days by WST-1 assay; format: functional, cell-based; conditions: MCF7, 48 h
[9] = test system: MCF7; assay: Inhibition of DNA synthesis in human MCF7 cells incubated for 4 days by BrdU incorporation assay; format: functional, cell-based; conditions: MCF7, 96 h
[10] = target: Sulfotransferase 1A1 (Rattus norvegicus, UniProt P17988); assay: Inhibition of rat liver SULT1A1-mediated oestradiol sulfonation incubated for 20 mins
Sequence of Sulfotransferase 1A1 (P17988 whole entry): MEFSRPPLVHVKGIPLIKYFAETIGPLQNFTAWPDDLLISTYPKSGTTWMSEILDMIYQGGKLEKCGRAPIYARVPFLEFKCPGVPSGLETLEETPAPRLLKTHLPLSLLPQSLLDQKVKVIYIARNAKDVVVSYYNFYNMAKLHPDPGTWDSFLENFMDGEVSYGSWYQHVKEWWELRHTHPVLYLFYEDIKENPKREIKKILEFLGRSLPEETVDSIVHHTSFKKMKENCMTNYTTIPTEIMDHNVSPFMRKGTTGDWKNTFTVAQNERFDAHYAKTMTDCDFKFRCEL

[11] = target: T1, Sulfotransferase 2A1 (Rattus norvegicus, UniProt P15709); assay: Inhibition of rat SULT2A1-mediated dehydroepiandrosterone sulfonation incubated for 20 mins
T1 sequence (P15709 whole entry): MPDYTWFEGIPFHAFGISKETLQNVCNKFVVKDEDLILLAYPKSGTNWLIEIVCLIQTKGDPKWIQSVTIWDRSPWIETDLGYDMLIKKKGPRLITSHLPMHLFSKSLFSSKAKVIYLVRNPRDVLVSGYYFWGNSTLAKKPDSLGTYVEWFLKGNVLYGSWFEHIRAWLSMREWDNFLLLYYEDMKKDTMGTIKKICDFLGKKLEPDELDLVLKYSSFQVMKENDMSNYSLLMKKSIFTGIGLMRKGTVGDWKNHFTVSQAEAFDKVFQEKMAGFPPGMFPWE

[12] = target: T2, Estrogen receptor (Bos taurus, UniProt P49884); assay: Displacement of [3H]-17beta-estradiol from bovine uterine estrogen receptor by competitive binding assay
T2 sequence (P49884 whole entry): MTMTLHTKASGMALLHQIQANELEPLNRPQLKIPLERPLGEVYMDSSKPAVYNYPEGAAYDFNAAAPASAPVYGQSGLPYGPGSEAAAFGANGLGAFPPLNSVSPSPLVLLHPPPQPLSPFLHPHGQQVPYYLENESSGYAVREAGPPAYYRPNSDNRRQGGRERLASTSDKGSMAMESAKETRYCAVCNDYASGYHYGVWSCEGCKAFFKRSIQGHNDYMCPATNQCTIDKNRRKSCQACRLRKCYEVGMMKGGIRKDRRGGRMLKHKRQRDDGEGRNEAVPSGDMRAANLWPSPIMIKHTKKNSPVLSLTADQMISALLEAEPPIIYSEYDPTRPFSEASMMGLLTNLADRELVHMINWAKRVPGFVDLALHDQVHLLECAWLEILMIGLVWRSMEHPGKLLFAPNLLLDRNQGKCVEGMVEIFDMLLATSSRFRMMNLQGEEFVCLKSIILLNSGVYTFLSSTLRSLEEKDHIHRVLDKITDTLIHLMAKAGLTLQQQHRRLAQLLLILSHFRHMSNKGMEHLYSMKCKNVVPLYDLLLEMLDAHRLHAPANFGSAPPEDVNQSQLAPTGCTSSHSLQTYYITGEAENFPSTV

[13] = test system: MCF7; assay: Antiproliferative activity against human MCF7 cells assessed as inhibition of cell growth incubated for 3 days by beta scintillation counting based [3H]-thymidine incorporation assay; format: functional
[14] = test system: MCF7; assay: Antiproliferative activity against human MCF7 cells assessed as inhibition of cell growth incubated for 0 to 5 days by MTT assay; format: functional, cell-based
[15] = Oral bioavailability in CD rat at 50 mg/kg administered daily for 14 days; format: ADME, organism-based; conditions: in vivo, time 14 day
[16] = Oral bioavailability in CD rat at 168 mg/kg administered daily for 14 days; format: ADME, organism-based; conditions: in vivo, time 14 day
[17] = target: T3, Steryl-sulfatase (Homo sapiens, UniProt P08842); assay: Inhibition of estrone sulfatase in human MCF7 cell microsomes; design: species or system Microsome
T3 sequence (P08842 whole entry): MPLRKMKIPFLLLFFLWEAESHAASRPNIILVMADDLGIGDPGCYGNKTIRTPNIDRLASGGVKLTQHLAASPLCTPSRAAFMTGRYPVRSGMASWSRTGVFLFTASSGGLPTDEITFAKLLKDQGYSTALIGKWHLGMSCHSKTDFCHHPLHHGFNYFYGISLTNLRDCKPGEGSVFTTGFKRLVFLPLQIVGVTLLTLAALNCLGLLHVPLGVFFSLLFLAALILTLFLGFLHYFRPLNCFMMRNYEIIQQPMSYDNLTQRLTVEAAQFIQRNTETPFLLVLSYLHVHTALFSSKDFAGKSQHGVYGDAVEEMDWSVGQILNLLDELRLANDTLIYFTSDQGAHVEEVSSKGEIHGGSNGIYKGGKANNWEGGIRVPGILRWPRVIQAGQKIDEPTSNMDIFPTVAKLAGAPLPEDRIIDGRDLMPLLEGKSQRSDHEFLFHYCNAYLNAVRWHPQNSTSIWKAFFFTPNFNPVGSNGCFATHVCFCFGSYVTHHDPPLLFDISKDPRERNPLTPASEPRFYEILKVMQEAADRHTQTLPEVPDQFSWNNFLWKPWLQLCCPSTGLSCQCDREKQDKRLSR

[18] = target: T4, Steryl-sulfatase (Rattus norvegicus, UniProt P15589); assay: Inhibition of estrone sulfatase in homogeneous rat mammary tumors; format: tissue-based, Tumor
T4 sequence (P15589 whole entry): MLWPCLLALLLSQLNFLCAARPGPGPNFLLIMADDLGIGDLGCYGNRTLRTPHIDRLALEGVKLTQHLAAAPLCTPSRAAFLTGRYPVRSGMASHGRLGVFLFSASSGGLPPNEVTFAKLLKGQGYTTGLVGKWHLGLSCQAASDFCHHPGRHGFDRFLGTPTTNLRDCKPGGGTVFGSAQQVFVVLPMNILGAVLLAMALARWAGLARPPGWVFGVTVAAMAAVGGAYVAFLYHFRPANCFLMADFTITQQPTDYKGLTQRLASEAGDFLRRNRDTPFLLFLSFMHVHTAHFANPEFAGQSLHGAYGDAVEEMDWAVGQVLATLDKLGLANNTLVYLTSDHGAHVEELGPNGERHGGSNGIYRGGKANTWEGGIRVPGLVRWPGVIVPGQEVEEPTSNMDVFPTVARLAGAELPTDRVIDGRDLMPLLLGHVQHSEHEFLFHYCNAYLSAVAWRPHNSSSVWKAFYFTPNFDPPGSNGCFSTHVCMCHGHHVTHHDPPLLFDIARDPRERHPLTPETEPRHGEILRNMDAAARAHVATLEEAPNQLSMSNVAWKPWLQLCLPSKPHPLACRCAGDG

- IC50 [4]: 25 µM
Compound: O=C(/C=C/c1ccc(O)cc1)c1ccc(O)cc1O [ISOLIQUIRITIGENIN]
- IC50 [5]: 25 µM

- IC50 [6]: 1.6 µM
Compound: COc1cc(O)c2c(=O)cc(-c3ccc(O)cc3)oc2c1 [GENKWANIN]
- IC50 [7]: 75 µM

- IC50 [10]: 0.29 µM
- IC50 [11]: 34 µM
Compound: O=c1c(-c2ccc(O)cc2)coc2cc(O)ccc12 [DAIDZEIN]

- IC50 [12]: 0.4 µM
Compound: C=C[C@H](/C=C\c1ccc(O)cc1)c1ccc(O)cc1 [NYASOL]

- IC50 [12]: 0.06 µM
Compound: C=C[C@@H](/C=C\c1ccc(O)cc1)c1ccc(O)cc1

- IC50 [3]: 1 µM
Compound: Oc1ccc(C2COc3cc(O)ccc3C2)cc1 (centres undefined)

- bioavailability [15]: 20%
Compound: Oc1ccc(/C=C/c2cc(O)cc(O)c2)cc1 [RESVERATROL]

- IC50 [3]: 1 µM
Compound: O=c1cc(-c2ccc(O)cc2)oc2cc(O)cc(O)c12 [APIGENIN]

More lines, now with the values behind:

Compound: COc1cc2c(c(O)c1C(=O)/C=C/c1ccc(O)cc1)C=CC(C)(C)O2 [XANTHOHUMOL C]
- IC50 [1]: 15.7 µM
- IC50 [2]: 6.87 µM

Compound: O=c1cc(-c2ccccc2)oc2ccccc12 [FLAVONE]
- IC50 [3]: 0.3 µM

Compound: COc1cc(O)c(CC=C(C)C)c2c1C(=O)CC(c1ccc(O)cc1)O2 (centres undefined) [ISOXANTHOHUMOL]
- IC50 [1]: 15.3 µM
- IC50 [2]: 4.69 µM

Compound: O=C(O)[C@H]1O[C@@H](Oc2cc(O)c3c(=O)cc(-c4ccc(O)cc4)oc3c2)[C@H](O)[C@@H](O)[C@@H]1O
- IC50 [6]: 13 µM
- IC50 [7]: 42 µM

Compound: COc1ccc(-c2coc3cc(O)cc(O)c3c2=O)cc1 [BIOCHANIN]
- IC50 [8]: 40 µg/mL (≈ 141 µM)
- IC50 [9]: 40 µg/mL (≈ 141 µM)
- IC50 [3]: 10 µM

Compound: C#C[C@]1(O)CC[C@H]2[C@@H]3CCc4cc(OC)ccc4[C@H]3CC[C@@]21C [MESTRANOL]
- IC50 [3]: 0.04 µM

Compound: O=C1C[C@@H](c2ccc(O)cc2)Oc2cc(O)cc(O)c21 [NARINGENIN]
- IC50 [3]: 0.3 µM

Compound: O=c1c(O)c(-c2ccc(O)c(O)c2)oc2cc(O)cc(O)c12 [QUERCETIN]
- IC50 [3]: 5 µM
- IC50 [10]: 0.29 µM
- IC50 [11]: 34 µM

Compound: O=c1cc(-c2ccc(O)c(O)c2)oc2cc(O)cc(O)c12 [LUTEOLIN]
- IC50 [3]: 5 µM

Compound: O=c1c(O)c(-c2ccccc2)oc2cc(O)cc(O)c12 [GALANGIN]
- IC50 [13]: 4.2 µg/mL (≈ 15.5 µM)

Compound: O=c1oc2cc(O)ccc2c2oc3cc(O)ccc3c12 [COUMESTROL]
- IC50 [14]: 50 µM
- IC50 [3]: 0.04 µM

Compound: COc1ccc(-c2cc(=O)c3c(OC)c(OC)c(OC)cc3o2)cc1OC [SINENSETIN]
- IC50 [6]: 0.2 µM
- IC50 [7]: 65 µM

Compound: O=C(CCc1ccc(O)cc1)c1c(O)cc(O)cc1O [PHLORETIN]
- IC50 [3]: 7 µM

Compound: O=c1c(O)c(-c2ccc(O)cc2)oc2cc(O)cc(O)c12 [KAEMPFEROL]
- IC50 [3]: 50 µM
- IC50 [10]: 0.29 µM
- IC50 [11]: 34 µM

Compound: O=c1cc(-c2ccccc2)oc2cc(O)c(O)c(O)c12 [BAICALEIN]
- IC50 [13]: 5.3 µg/mL (≈ 19.6 µM)

Compound: COc1cc(/C=C/c2ccc(O)cc2)cc(OC)c1 [PTEROSTILBENE]
- bioavailability [16]: 80%

Compound: O=c1c(-c2ccc(O)cc2)coc2cc(O)cc(O)c12 [GENISTEIN]
- IC50 [10]: 0.29 µM
- IC50 [11]: 34 µM

Compound: COc1cc(O)c(CC=C(C)C)c(O)c1C(=O)/C=C/c1ccc(O)cc1 [XANTHOHUMOL]
- IC50 [1]: 13.3 µM
- IC50 [2]: 3.47 µM

Compound: C[C@H]1[C@H](C)CC[C@]2(C(=O)O)CC[C@]3(C)C(=CC[C@@H]4[C@@]5(C)CC[C@H](O)C(C)(C)[C@@H]5CC[C@]43C)[C@H]12 [URSOLIC ACID]
- IC50 [17]: 0.263 µM
- IC50 [18]: 0.131 µM
